Data as given in article PMC11288027, “Exploring novel microbial metabolites and drugs for inhibiting Clostridioides difficile” (mSphere, 2024).
Like-named read-outs stand apart in the source and are kept apart here.

Experiments:
[1] = tested on: C. difficile ATCC BAA-1870; experiment: MIC of active hits by broth microdilution; conditions: C. difficile ATCC BAA-1870, 48 h anaerobic; for MIC: Clostridioides difficile, ATCCBAA1870, 48 h
L. rhamanosus = experiment: MIC against human gut microbiota; type: cell-based, Lactobacillus rhamnoosus; conditions: Lactobacillus, ATCC53103; L. rhamanosus ATCC-53103, MRS broth, 5% CO2; read-out: minimum inhibitory concentration (MIC)
Bif. adolescentis = experiment: MIC against human gut microbiota; type: cell-based, Bifidobacterium adolescentis; conditions: Bifidobacterium adolescentis; Bif. adolescentis HM- 633, BHIS broth, anaerobic; read-out: minimum inhibitory concentration (MIC)
[2] = tested on: C. difficile clinical isolates; experiment: MIC against a panel of 20 C. difficile clinical isolates (broth microdilution); type: cell-based, Clostridioides difficile; conditions: Clostridioides difficile; for MIC50: concentration that inhibited 50% of the 20 C. difficile clinical isolates
Bif. angulatum = experiment: MIC against human gut microbiota; type: cell-based, Bifidobacterium angulatum; conditions: Bifidobacterium angulatum; Bif. angulatum HM- 1189, BHIS broth, anaerobic; read-out: minimum inhibitory concentration (MIC)
E. faecium = experiment: MIC against human gut microbiota; type: cell-based, Enterococcus faecium; conditions: Enterococcus faecium; E. faecium HM-202, TSB, aerobic; read-out: minimum inhibitory concentration (MIC)
[3] = Cytotoxicity assessment against Vero cells (MTS); conditions: monkey, Vero cells (monkey kidney epithelial cells)
[4] = tested on: monkey kidney epithelial (Vero) cells; experiment: Cytotoxicity assessment against Vero cells (MTS); conditions: Vero IC50 relative to MIC90 of C. difficile panel
Bif. breve = experiment: MIC against human gut microbiota; type: cell-based, Bifidobacterium breve; conditions: Bifidobacterium breve, ATCC15700; Bif. breve ATCC 15700, BHIS broth, anaerobic; read-out: minimum inhibitory concentration (MIC)
L. casei = experiment: MIC against human gut microbiota; type: cell-based; conditions: Lacticaseibacillus casei, ATCC334; L. casei ATCC 334, MRS broth, 5% CO2; read-out: minimum inhibitory concentration (MIC)
B. dorei = experiment: MIC against human gut microbiota; type: cell-based, Bacteroides dorei; conditions: Phocaeicola dorei; B. dorei HM- 719, BHIS broth, anaerobic; read-out: minimum inhibitory concentration (MIC)
Bif. longum = experiment: MIC against human gut microbiota; type: cell-based, Bifidobacterium longum; conditions: Bifidobacterium longum, anaerobic, read-out: minimum inhibitory concentration (MIC)
E. fecalis = experiment: MIC against human gut microbiota; type: cell-based, Enterococcus faecalis; conditions: Enterococcus faecalis; E. fecalis HM-970, TSB, aerobic; read-out: minimum inhibitory concentration (MIC)
L. brevis = experiment: MIC against human gut microbiota; type: cell-based, Lactobacillus brevis; conditions: Levilactobacillus brevis, ATCC14864; L. brevis ATCC-14864, MRS broth, 5% CO2; read-out: minimum inhibitory concentration (MIC)
B. fragilis = experiment: MIC against human gut microbiota; type: cell-based, Bacteroides fragilis; conditions: Bacteroides fragilis, anaerobic, read-out: minimum inhibitory concentration (MIC)
enterococcal species = experiment: MIC against human gut microbiota, summary in text; type: cell-based; conditions: summary over the Enterococcus strains of Table 4
[5] = tested on: methicillin-resistant S. aureus (MRSA); parameters: method as in earlier work; conditions: cited from earlier work
[6] = tested on: C. difficile ATCC BAA-1870; experiment: Time-kill assay at 5 × MIC; conditions: C. difficile ATCC BAA-1870, ~10^6 CFU/mL, up to 24 h
Escherichia coli = tested on: Escherichia coli; parameters: method as in earlier work; conditions: cited from earlier work
in vitro = conditions: monkey
Bacillus subtilis = tested on: Bacillus subtilis; parameters: method as in earlier work; conditions: cited from earlier work
[7] = tested on: Mycobacterium tuberculosis; parameters: method as in earlier work; conditions: read-out: half-maximal inhibitory concentration [IC50]; cited from earlier work
[8] = Bif. longum HM- 845, BHIS broth
[9] = Bif. longum HM- 846, BHIS broth
[10] = Bif. longum HM- 847, BHIS broth
[11] = Bif. longum HM- 848, BHIS broth
[12] = B. fragilis HM- 709, BHIS broth
[13] = B. fragilis HM- 718, BHIS broth

COC(=O)N/N=C/c1c[n+]([O-])c2ccccc2[n+]1[O-] [Carbadox]
128 µg/mL: MIC (E. faecium) | MIC (L. casei) | MIC (E. fecalis)
> 128 µg/mL: IC50 at 24 h [3]
2 µg/mL: MIC ([2]; ATCCBAA1870, C. difficile ATCC BAA-1870 (Ribotype-027), purchased compounds, panel test, read-out: minimum inhibitory concentration (MIC)) | MIC ([2]; C. difficile CD-1 (Ribotype-027), read-out: minimum inhibitory concentration (MIC)) | MIC ([2]; C. difficile CD-10(Ribotype-027), read-out: minimum inhibitory concentration (MIC)) | MIC ([2]; C. difficile CD-12, read-out: minimum inhibitory concentration (MIC)) | MIC ([2]; C. difficile CD-22, read-out: minimum inhibitory concentration (MIC)) | MIC ([2]; C. difficile CD-23, read-out: minimum inhibitory concentration (MIC)) | MIC ([2]; C. difficile CD-26 (Ribotype-027), read-out: minimum inhibitory concentration (MIC)) | MIC ([2]; C. difficile CD-28, read-out: minimum inhibitory concentration (MIC)) | MIC ([2]; C. difficile CD-30, read-out: minimum inhibitory concentration (MIC)) | MIC ([2]; C. difficile NR-49302, read-out: minimum inhibitory concentration (MIC)) | MIC90 ([2]; concentration that inhibited 90% of the 20 C. difficile clinical isolates, read-out: MIC90) | MIC (B. dorei) | MIC (B. fragilis; [12]) | MIC (B. fragilis; [13])
> 64 times: safety index: Vero IC50 as times the MIC90 against strains of C. difficile [4]
1.05 µg/mL: MIC [1]
8 µg/mL: MIC (Bif. longum; [9])
32 µg/mL: MIC (L. brevis)
16 µg/mL: MIC (Bif. breve) | MIC (Bif. longum; [10])
4 µM: MIC (μM) [1]
1 µg/mL: MIC50 ([2]; 48 h, read-out: MIC50) | MIC ([2]; ATCC630, C. difficile ATCC 630, read-out: minimum inhibitory concentration (MIC)) | MIC ([2]; ATCC43255, C. difficile ATCC 43255, read-out: minimum inhibitory concentration (MIC)) | MIC ([2]; C. difficile CD-13, read-out: minimum inhibitory concentration (MIC)) | MIC ([2]; C. difficile CD-15, read-out: minimum inhibitory concentration (MIC)) | MIC ([2]; C. difficile CD-24, read-out: minimum inhibitory concentration (MIC)) | MIC ([2]; C. difficile NR-49304, read-out: minimum inhibitory concentration (MIC)) | MIC ([2]; C. difficile NR-49308, read-out: minimum inhibitory concentration (MIC)) | MIC50 ([2]; read-out: MIC50)
0.5 µg/mL: MIC ([2]; C. difficile CD-6 (Ribotype-027), read-out: minimum inhibitory concentration (MIC)) | MIC ([2]; C. difficile CD-29 (Ribotype-027), read-out: minimum inhibitory concentration (MIC)) | MIC ([2]; C. difficile NR-49319, read-out: minimum inhibitory concentration (MIC))
> 256 µg/mL: MIC (L. rhamanosus)
4 µg/mL: MIC (Bif. adolescentis) | MIC (Bif. angulatum) | MIC (Bif. longum; [8]) | MIC (Bif. longum; [11])

COc1cc2c(cc1O)CCN[C@]21CS[C@@H]2c3c(OC(C)=O)c(C)c4c(c3[C@H](COC1=O)N1[C@@H]2[C@H]2c3c(cc(C)c(OC)c3O)C[C@@H]([C@@H]1C#N)N2C)OCO4 [ET-770, ecteinascidin 770]
> 128 µg/mL: IC50 at 24 h (in vitro)
0.125 µg/mL: MIC90 [2] | MIC ([2]; ATCCBAA1870, read-out: minimum inhibitory concentration (MIC), C. difficile ATCC BAA-1870 (Ribotype-027), purchased compounds, panel test) | MIC ([2]; read-out: minimum inhibitory concentration (MIC), C. difficile CD-1 (Ribotype-027)) | MIC ([2]; read-out: minimum inhibitory concentration (MIC), C. difficile CD-6 (Ribotype-027)) | MIC ([2]; read-out: minimum inhibitory concentration (MIC), C. difficile CD-10(Ribotype-027)) | MIC ([2]; read-out: minimum inhibitory concentration (MIC), C. difficile CD-12) | MIC ([2]; read-out: minimum inhibitory concentration (MIC), C. difficile CD-22) | MIC ([2]; read-out: minimum inhibitory concentration (MIC), C. difficile CD-24) | MIC ([2]; read-out: minimum inhibitory concentration (MIC), C. difficile CD-26 (Ribotype-027)) | MIC ([2]; read-out: minimum inhibitory concentration (MIC), C. difficile CD-30) | MIC ([2]; read-out: minimum inhibitory concentration (MIC), C. difficile NR-49308)
6 h: time to eliminate / clear C. difficile [6]
more than 1024 times: safety index: Vero IC50 as times the MIC90 against strains of C. difficile [4]
2.02 µM: MIC [5]
≤ 2 µg/mL: MIC (enterococcal species) | MIC (L. rhamanosus) | MIC (Bif. adolescentis) | MIC (Bif. angulatum) | MIC (E. faecium) | MIC (Bif. breve) | MIC (L. casei) | MIC (B. dorei) | MIC (Bif. longum; [8]) | MIC (Bif. longum; [9]) | MIC (Bif. longum; [10]) | MIC (Bif. longum; [11]) | MIC (E. fecalis) | MIC (L. brevis) | MIC (B. fragilis; [12]) | MIC (B. fragilis; [13])
0.06 µg/mL: MIC ([2]; ATCC43255, read-out: minimum inhibitory concentration (MIC), C. difficile ATCC 43255) | MIC ([2]; read-out: minimum inhibitory concentration (MIC), C. difficile CD-13) | MIC ([2]; read-out: minimum inhibitory concentration (MIC), C. difficile CD-15) | MIC ([2]; read-out: minimum inhibitory concentration (MIC), C. difficile CD-23) | MIC ([2]; read-out: minimum inhibitory concentration (MIC), C. difficile CD-29 (Ribotype-027)) | MIC ([2]; read-out: minimum inhibitory concentration (MIC), C. difficile NR-49302) | MIC ([2]; read-out: minimum inhibitory concentration (MIC), C. difficile NR-49304) | MIC ([2]; read-out: minimum inhibitory concentration (MIC), C. difficile NR-49319) | MIC50 [2]
130 nM: IC50 [7]
≤ 0.19 µg/mL: MIC [1]
1.01 µM: MIC (Bacillus subtilis)
32.43 µM: MIC (Escherichia coli)
0.03 µg/mL: MIC ([2]; ATCC630, read-out: minimum inhibitory concentration (MIC), C. difficile ATCC 630) | MIC ([2]; read-out: minimum inhibitory concentration (MIC), C. difficile CD-28)
≤ 0.06 µg/mL: MIC50 ([2]; 48 h)
